Measurements as given in patent US20230219962A1, “PYRAZOLO[4,3-d]PYRIMIDINE DERIVATIVES AND METHODS OF USE THEREOF FOR THE TREATMENT OF CELLULAR PROLIFERATIVE DISORDERS” (Merck Sharp & Dohme LLC, priority 2020, published 2023).

Key:
hTLR7 = target: T1, hTLR7 (Homo sapiens, UniProt Q9NYK1); experiment: Human TLR7 Reporter Assay; assay type: cell-based; conditions: HEK-Blue hTLR7 cells, 16 hours, normalized to CL097 (6 μM) and DMSO
T1 construct: host or cells: HEK-Blue hTLR7 cells (HEK293-derived, own knowledge)
T1 sequence (Q9NYK1 27-1049): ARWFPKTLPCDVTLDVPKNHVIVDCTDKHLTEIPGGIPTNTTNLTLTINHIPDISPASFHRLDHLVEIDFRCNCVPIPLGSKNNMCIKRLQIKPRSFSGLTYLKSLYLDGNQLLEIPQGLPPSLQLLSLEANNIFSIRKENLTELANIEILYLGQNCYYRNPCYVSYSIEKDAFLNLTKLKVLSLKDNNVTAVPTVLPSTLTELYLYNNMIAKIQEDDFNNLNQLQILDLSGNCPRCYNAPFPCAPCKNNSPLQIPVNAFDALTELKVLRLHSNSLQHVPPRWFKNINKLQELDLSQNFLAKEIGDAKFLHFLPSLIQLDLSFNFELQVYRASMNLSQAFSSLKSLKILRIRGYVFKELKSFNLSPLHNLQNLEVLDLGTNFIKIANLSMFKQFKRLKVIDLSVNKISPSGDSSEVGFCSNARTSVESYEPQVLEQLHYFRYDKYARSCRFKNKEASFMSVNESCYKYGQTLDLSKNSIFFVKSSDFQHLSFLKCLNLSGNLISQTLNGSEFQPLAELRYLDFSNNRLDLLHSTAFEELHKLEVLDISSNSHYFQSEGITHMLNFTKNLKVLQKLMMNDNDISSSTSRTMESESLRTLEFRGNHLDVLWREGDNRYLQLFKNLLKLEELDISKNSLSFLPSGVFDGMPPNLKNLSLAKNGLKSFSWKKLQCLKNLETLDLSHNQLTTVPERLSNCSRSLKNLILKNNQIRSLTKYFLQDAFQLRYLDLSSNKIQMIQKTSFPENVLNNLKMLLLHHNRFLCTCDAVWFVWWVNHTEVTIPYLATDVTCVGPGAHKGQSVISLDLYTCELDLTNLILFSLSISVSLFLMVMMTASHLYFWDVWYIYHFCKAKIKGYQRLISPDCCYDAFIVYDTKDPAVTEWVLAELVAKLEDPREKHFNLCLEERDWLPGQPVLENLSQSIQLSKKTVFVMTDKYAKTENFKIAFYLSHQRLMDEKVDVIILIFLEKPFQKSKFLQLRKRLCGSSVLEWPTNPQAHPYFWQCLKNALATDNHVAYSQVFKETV
Outline: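 HEK-Blue hTLR7 reporter cells (20,000/well) incubated 16 h at 37 °C with 10-point 3-fold compound dilutions; SEAP read by absorbance at 620 nm. Effects normalized between CL097 (6 μM) and DMSO controls; EC50 from 4-parameter fit.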

hTLR8 = target: T2, hTLR8 (Homo sapiens, UniProt Q9NR97); experiment: Human TLR8 Reporter Assay; assay type: cell-based; conditions: HEK-Blue hTLR8 cells, 16 hours, normalized to tl8-506 (1 μM) and DMSO
T2 construct: host or cells: HEK-Blue hTLR8 cells (HEK293-derived, own knowledge)
T2 sequence (Q9NR97 27-1041): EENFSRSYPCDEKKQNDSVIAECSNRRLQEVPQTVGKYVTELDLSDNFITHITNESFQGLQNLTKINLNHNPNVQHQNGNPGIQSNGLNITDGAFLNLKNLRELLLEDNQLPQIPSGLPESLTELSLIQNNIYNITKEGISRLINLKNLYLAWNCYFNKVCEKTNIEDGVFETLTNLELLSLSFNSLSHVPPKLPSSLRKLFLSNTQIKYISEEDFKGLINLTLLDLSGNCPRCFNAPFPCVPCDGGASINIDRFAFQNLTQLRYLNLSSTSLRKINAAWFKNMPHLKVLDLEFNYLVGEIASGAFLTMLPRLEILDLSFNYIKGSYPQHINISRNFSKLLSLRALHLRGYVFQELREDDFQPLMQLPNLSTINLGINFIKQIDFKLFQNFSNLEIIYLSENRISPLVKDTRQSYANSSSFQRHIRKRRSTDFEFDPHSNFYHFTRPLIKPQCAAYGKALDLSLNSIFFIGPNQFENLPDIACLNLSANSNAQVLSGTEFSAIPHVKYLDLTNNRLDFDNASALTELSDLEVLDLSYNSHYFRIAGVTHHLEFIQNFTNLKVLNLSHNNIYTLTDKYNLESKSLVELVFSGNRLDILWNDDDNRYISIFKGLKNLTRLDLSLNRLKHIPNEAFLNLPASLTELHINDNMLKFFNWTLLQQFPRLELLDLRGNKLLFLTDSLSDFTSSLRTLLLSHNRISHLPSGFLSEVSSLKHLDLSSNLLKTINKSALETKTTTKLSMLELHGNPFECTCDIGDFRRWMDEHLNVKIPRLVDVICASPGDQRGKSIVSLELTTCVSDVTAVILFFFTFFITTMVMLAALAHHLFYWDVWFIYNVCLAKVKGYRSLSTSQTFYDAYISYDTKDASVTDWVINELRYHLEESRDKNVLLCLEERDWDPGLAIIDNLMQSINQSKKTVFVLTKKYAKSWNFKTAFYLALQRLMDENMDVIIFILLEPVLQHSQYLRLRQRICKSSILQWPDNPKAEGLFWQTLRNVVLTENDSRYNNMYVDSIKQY
Outline: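 HEK-Blue hTLR8 cells (20,000/well) incubated 16 h at 37 °C with 10-point 3-fold compound dilutions in HEK-Blue Detection medium; reporter read as absorbance at 620 nm. Effects normalized between DMSO and tl8-506 (1 μM); EC50 from 4-parameter fit.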

EC50 (hTLR7)	EC50 (hTLR8)	Structure (SMILES)
0.496 µM	> 29.9 µM	COc1cccc(OC)c1Cn1cc2nc(N)nc(NCCCC(C)C)c2n1 [Compound 54]
0.526 µM	11.4 µM	CCCCNc1nc(N)nc2cn(Cc3ccc(C4CCC(=O)N4)cc3)nc12 (stereo not shown) [Compound 203]
1.24 µM	3.3 µM	CCCCNc1nc(N)nc2cn(Cc3ccc(CN4CC(CN5C(=O)C=CC5=O)C4)cc3OC)nc12 [Compound 127]
0.114 µM	0.161 µM	CCC[C@@H](CO)Nc1nc(N)nc2cn(Cc3ncccc3OC)nc12 [Compound 133]
0.11 µM	0.168 µM	CCCC(C)Nc1nc(N)nc2cn(Cc3c(OC)cc(CNC)cc3OC)nc12 (stereo not shown) [Compound 164]
1.41 µM	> 9.98 µM	CCCCNc1nc(N)nc2cn(C(C)c3ccccc3OC)nc12 (stereo not shown) [Compound 102]
0.553 µM	3.68 µM	CCCCNc1nc(N)nc2cn(Cc3ncc(CN4C(=O)C=CC4=O)cc3OC)nc12 [Compound 110]
0.396 µM	0.835 µM	CCCCNc1nc(N)nc2cn(Cc3ccc(C4CCNC4)cc3)nc12 (stereo not shown) [Compound 198]
0.0768 µM	0.153 µM	C=CCN(C)Cc1ccc(Cn2cc3nc(N)nc(N[C@H](CO)CCC)c3n2)c(OC)c1 [Compound 156]
0.0507 µM	1.09 µM	CCCCNc1nc(N)nc2cn(Cc3ccc(C(C)N(C)CCC)cc3OC)nc12 (stereo not shown) [Compound 240]
1.74 µM	18.7 µM	CCCCNc1nc(N)nc2cn(Cc3ccc(N4CC5(CN(CCN6C(=O)C=CC6=O)C5)C4)cc3OC)nc12 [Compound 125]
7.75 µM	8.14 µM	CCCCNc1nc(N)nc2cn(Cc3nnco3)nc12 [Compound 212]
2.8 µM	> 29.9 µM	COc1cccc(OC)c1Cn1cc2nc(N)nc(NCCC(C)O)c2n1 (stereo not shown) [Compound 52]
1.06 µM	3.14 µM	CCC[C@@H](CO)Nc1nc(N)nc2cn(Cc3ccc(N4CCN(C(=O)C5CCC(CN6C(=O)C=CC6=O)CC5)CC4)cc3OC)nc12 (stereo partly shown) [Compound 153]
0.653 µM	1.16 µM	CCCCNc1nc(N)nc2cn(Cc3c(OC)cc(CN4CC(N)C4)cc3OC)nc12 [Compound 192]
1.03 µM	> 9.98 µM	CCCCNc1nc(N)nc2cn(Cc3ccccc3OC(C)C)nc12 [Compound 37]
0.252 µM	1.72 µM	CCCCNc1nc(N)nc2cn(Cc3nocc3C)nc12 [Compound 140]
